Source: US20240208939A1, “TREATMENT OF AUTOIMMUNE AND INFLAMMATORY DISORDERS WITH INHIBITORS OF BET FAMILY BDII BROMODOMAIN” (POSEIDON INNOVATION 1, INC., priority 2022, published 2024)

What was measured:
BRD4 BD2 = biological target: T1, BRD4 BD2 (Homo sapiens, UniProt O60885); test: Target Engagement Intracellular BET BRD Assay (NanoBRET); format: cell-based; conditions: read-out: BRD4 BD2 TE IC50
T1 construct: BD2 TE; expressed in transfected cells
Description: 3× Complete Substrate plus Inhibitor Solution in Assay Medium (Opti-MEM® I Reduced Serum Medium, no phenol red, and no serum) was prepared just before measuring BRET. This solution consisted of a 1:166 dilution of NanoBRET™ Nano-Glo® Substrate plus a 1:500 dilution of Extracellular NanoLuc® Inhibitor in Assay Medium. For a 96-well plate, 30 μl of NanoBRET™ Nano-Glo® Substrate, 10 μl of Extracellular NanoLuc® Inhibitor and 4,960 μl of Assay Medium were mixed to produce 5 ml of 3× Complete Substrate plus Inhibitor Solution, followed with gently mixing by inversion 5-10 times in a conical tube. (The final concentration of Extracellular NanoLuc® Inhibitor in the 3× solution was 60 μM, for a working concentration of 20 μM. Use 3× Complete Substrate plus Inhibitor Solution within 2 hours. Discard any remaining solution).
50 μl of 3× Complete Substrate plus Inhibitor Solution were added to each well of the 96-well plate, followed by incubation for 2-3 minutes at room temperature. Donor emission wavelength (e.g., 450 nm) and acceptor emission wavelength (e.g., 610 nm) were measured by using the GloMax® Discover System or other NanoBRET™ Assay-compatible luminometer (it is recommended measuring BRET within 10 minutes after adding NanoBRET™ Nano-Glo™ Substrate plus Extracellular NanoLuc® Inhibitor Solution. However, BRET can be measured for up to 2 hours, but there will be some loss of luminescence signal).
To generate raw BRET ratio values, the acceptor emission value (e.g., 610 nm) was divided by the donor emission value (e.g., 450 nm) for each sample [to correct for background, the BRET ratio was substracted in the absence of tracer (average of no-tracer control samples) from the BRET ratio of each sample]. Raw BRET units were converted to milliBRET units (mBU) by multiplying each raw BRET value by 1,000. NanoBRET™ ratio equation, including optional background correction is shown below:
BRET Ratio=[(Acceptorsample÷Donorsample)−(Acceptorno-tracer control÷Donorno-tracer control)]×1,000.

MCP-1 = test: PBMC MCP-1 HTRF Assay; format: cell-based; conditions: LPS 200 ng/mL, 24 hours
Description: The cryopreserved PBMC cells were thawed in a 37° C. water bath immediately after taking out from liquid nitrogen storage. A sterile pipette was used to transfer the content to sterile […] centrifuge tube containing […] of complete growth medium (Gibico 1640) and centrifuge at 300×g for 10 min. Supernatant was discarded, and cell pellet was resuspended in 10 mL of complete growth media in a sterile 15 mL tube. The cells were rested for 1 h at 37° C. (1×10^6 cells/mL). The cells were spinned down at 300×g for 10 minutes after 1 h. Supernatant was discard, and cell pellet was resuspended in complete growth medium, the cells number and viability were measured by AO/PI staining. In a 384-well white plate, PBMCs at 25 k cells/well (15 μl per well) were seeded with Gibico 1640 medium. The compound stock was serial diluted into […] by 3-fold dilution. 20 nL DMSO, 20 nL test compounds DMSO stock (serial diluted) were transferred in assay plate by using ECHO550, incubate for 30 min at 37° C., 5% CO2. LPS was diluted by Gibico 1640 medium.add 5 μl per well. The final concentration (200 ng/mL) was incubated for 24 hours at 37° C. with 5% CO2.
For MCP-1 HTRF, 2.5 μl/well MCP-1 donor antibody and 2.5 μl/well MCP-1 acceptor antibody were added into 384 well plate, following by centrifuging at 190×g for 1 min and incubating at room temperature for 2 h. The plate was read on the Envision.

[1] = test system: IMQ-mouse model of psoriasis; test: IMQ induced psoriasis mouse model, PASI scoring; format: in vivo, mice; conditions: daily dosing po, compared to vehicle treatment
Description: Except for the control group, all other groups received a daily topical dose of 60 mg of 5% commercially available IMQ cream on the shaved back for 7 consecutive days. The same amount of Vaseline was applied to the same areas of the animals in the negative control group. Vehicle and DF-6129 were dosed daily (po) for 8 days, from Day −1 to Day 7. Dosing time: 1 hour prior to IMQ application. Psoriasis Area and Severity Index (PASI) Scoring The Psoriasis Area and Severity Index (PASI) scoring system was used to evaluate the severity of skin inflammation of the mouse model. Erythema, scaling, and skin thickness was scored independently from 0-4 as (daily scoring) as below: [table] All statistical analysis were conducted, and the level of significance was set at P<0.05. The group means and standard deviation were calculated for all measurement parameters as study designed. One-way ANOVA comparisons among the groups was performed with software SPSS 16.0.

IL-17 = test: Serum IL-17 ELISA in IMQ-mouse model of psoriasis; format: in vivo, mice; conditions: compared to vehicle treatment alone, 4 h post last dosing on day 7
Description: Except for the control group, all other groups received a daily topical dose of 60 mg of 5% commercially available IMQ cream on the shaved back for 7 consecutive days. The same amount of Vaseline was applied to the same areas of the animals in the negative control group. Vehicle and DF-6129 were dosed daily (po) for 8 days, from Day −1 to Day 7. Dosing time: 1 hour prior to IMQ application. Animals were euthanized 4 h post last dosing on day 7 (3 h after applying with imiquimod cream). Whole Blood was collected via cardiac puncture from all group animals. Serum samples were separated by centrifugation at 4° C. at 8000 g for 5 minutes, total 70 samples. All serum samples were stored at −80° C. for IL-17 analysis. All statistical analysis were conducted, and the level of significance was set at P<0.05. The group means and standard deviation were calculated for all measurement parameters as study designed. One-way ANOVA comparisons among the groups was performed with software SPSS 16.0.

IL-17A = test: Back skin PCR analysis in IMQ-treated mice, IL-17A mRNA; format: in vivo; conditions: 10 mg/kg, compared with vehicle treatment alone
Description: (§1) Except for the control group, all other groups received a daily topical dose of 60 mg of 5% commercially available IMQ cream on the shaved back for 7 consecutive days. The same amount of Vaseline was applied to the same areas of the animals in the negative control group.
(§2) Vehicle and DF-6129 were dosed daily (po) for 8 days, from Day −1 to Day 7. Dosing time: 1 hour prior to IMQ application.
(§3) Animals were euthanized 4 h post last dosing on day 7 (3 h after applying with imiquimod cream) and back skin was be collected. The skin tissues were divided into two parts. One half was flash frozen and stored at −80° C. for PCR analysis (IL-17A, IL-17F, IL-22 and IL-23), the other half was fixed in 10% formalin for HE staining and scoring.
(§4) All statistical analysis were conducted, and the level of significance was set at P<0.05. The group means and standard deviation were calculated for all measurement parameters as study designed. One-way ANOVA comparisons among the groups was performed with software SPSS 16.0.

IL-22 = test: Back skin PCR analysis in IMQ-treated mice, IL-22 mRNA; format: in vivo; conditions: 10 mg/kg, compared with vehicle treatment alone
Description: as §1, §2, §3, §4

IL-23 = test: Back skin PCR analysis in IMQ-treated mice, IL-23 mRNA; format: in vivo; conditions: 10 mg/kg, compared with vehicle treatment alone
Description: as §1, §2, §3, §4

IL-17A, IL17F and IL-22 = conditions: Gilan et al. 2020; cited from earlier work

SMILES | IC50 (BRD4 BD2) | IC50 (MCP-1) | erythema [1] | scaling [1] | skin thickening [1] | total psoriasis (PASI) score [1] | serum IL-17 levels (IL-17) | mRNA levels of IL-17A from the back skin (IL-17A) | mRNA levels of IL-22 from the back skin (IL-22) | mRNA levels of IL-23 from the back skin (IL-23) | expression of disease relevant pro-inflammatory genes, including IL-17A, IL17F and IL-22 (IL-17A, IL17F and IL-22)
Cn1ccn(-c2ccc(-c3cc(F)cc(-c4cccc(N5CCN(C(C)(C)C)CC5)c4)c3O)cc2Cl)c1=O [Example I-1, 1-(3″-(4-(tert-butyl)piperazin-1-yl)-3-chloro-5′-fluoro-2′-hydroxy-[1,1′:3′,1″- terphenyl]-4-yl)-3-methyl-1,3-dihydro-2H-imidazol-2-one] | 0.323 nM | 1.51 nM | significant decreases | significant decreases | significant decreases | significantly reduced | significantly reduced | significantly reduced | significantly reduced | significantly reduced | –
CNC(=O)c1cc(C(=O)NC2CC2)cn(Cc2ccccc2)c1=O [GSK620] | – | – | – | – | – | – | – | – | – | – | reduced the expression
